Measurements taken from patent publication US8143421B2, “Broadspectrum substituted benzimidazole sulfonamide HIV protease inhibitors” (priority 2002, dated 2012).
Read-outs that look alike come from different tables or passages of the source.

Assays:
in vitro = settings: human
mutant F = assay: Antiviral spectrum, fold resistance towards mutant F; format: cell-based; settings: FR=IC50(mutant strain)/IC50(HIV-1 strain LAI)
Method: (§1) Because of the increasing emergence of drug resistant HIV strains, the present compounds were tested for their potency against clinically isolated HIV strains harboring several mutations. These mutations are associated with resistance to protease inhibitors and result in viruses that show various degrees of phenotypic cross-resistance to the currently commercially available drugs such as for instance saquinavir, ritonavir, nelfinavir, indinavir and amprenavir. The viral strains R13025, R13027, R13028, R13029, R13034, R13080, T13127 and R13363 contained mutations as indicated below in Table 3.

mutant B = assay: Antiviral spectrum, fold resistance towards mutant B; format: cell-based; settings: FR=IC50(mutant strain)/IC50(HIV-1 strain LAI)
Method: as §1

mutant H = assay: Antiviral spectrum, fold resistance towards mutant H; format: cell-based; settings: FR=IC50(mutant strain)/IC50(HIV-1 strain LAI)
mutant D = assay: Antiviral spectrum, fold resistance towards mutant D; format: cell-based; settings: FR=IC50(mutant strain)/IC50(HIV-1 strain LAI)
Method: as §1

mutant G = assay: Antiviral spectrum, fold resistance towards mutant G; format: cell-based; settings: FR=IC50(mutant strain)/IC50(HIV-1 strain LAI)
Method: as §1

mutant C = assay: Antiviral spectrum, fold resistance towards mutant C; format: cell-based; settings: FR=IC50(mutant strain)/IC50(HIV-1 strain LAI)
Method: as §1

HIV-1 strain LAI = assay: Cellular anti-HIV assay, MT4 cells, MTT readout, wild type HIV-1 strain LAI; format: cell-based
Method: The compounds of the present invention were examined for anti-viral activity in a cellular assay. […] The cellular assay was performed according to the following procedure.

mutant A = format: cell-based; settings: FR=IC50(mutant strain)/IC50(HIV-1 strain LAI)
mutant E = format: cell-based; settings: FR=IC50(mutant strain)/IC50(HIV-1 strain LAI)

## CC(C)CN(C[C@@H](O)[C@H](Cc1ccccc1)NC(=O)O[C@H]1CO[C@H]2OCC[C@H]21)S(=O)(=O)c1ccc2ncn(Cc3ccccc3)c2c1 [Compound 1, [(1S,2R)-2-hydroxy-3-[(2-methylpropyl)[[1-(phenylmethyl)benzimidazol-6-yl]sulfonyl]amino]-1-(phenylmethyl)-propyl]carbamic acid, [(3R,3aS,6aR)-hexahydrofuro[2,3-b]furan-3-yl]ester]
In vitro
  CC50 at 5 days: 63100 nM
Mutant F
  FR towards mutant F: 40
Mutant B
  FR towards mutant B: 3.1
Mutant H
  FR towards mutant H: 33
Mutant D
  FR towards mutant D: 1.5
Mutant G
  FR towards mutant G: 275
Mutant C
  FR towards mutant C: 1.1
HIV-1 strain LAI; Human immunodeficiency virus 1, 120 h, Table 1, MT4 cells, five days, HIV-1 strain LAI, read-out: pIC50 (LAI) (converted)
  IC50: 0.794 nM
HIV-1 strain LAI; Human immunodeficiency virus 1, MT4, Table 4, wild type HIV-LAI strain, read-out: WT (pIC50 against wild type HIV-LAI strain) (converted)
  IC50: 0.794 nM
Mutant A
  FR value towards mutant A: 9.3
Mutant E
  FR towards mutant E: 1.6
